Assay results from paper PMC3094488 (European journal of pharmacology, 2011).
“And” between values parts separate entries of the source, which are not always exact repeats. Identical values can stand only once.

How the values were obtained:
[1] = target: CB1 receptors (Rattus norvegicus, UniProt P20272); test: CB1 receptor internalization in HEK293 cells stably expressing CB1; type: cell-based; conditions: for plateau / maximal internalization in time course: 100 nM drug, up to 6 hours; for plateau / maximal internalization in time course / maximal internalization (Emax): mean ± S.E.M.; for maximal internalization (Emax) / EC50: 2 hour treatment; for maximal internalization (Emax): at 1 μM; for EC50: read-out: EC50 of CB1 internalization, mean (95% CI)
[2] = target: T1, CB1 receptors (Mus musculus, UniProt P47746); conditions: at 1 μM; ref Atwood et al., 2010; cited from earlier work
[3] = target: T1, CB1 receptors; test: Inhibition of EPSCs; type: cell-based; conditions: for maximal suppression of EPSC, % of baseline: at 1 μM, mean ± S.E.M.; for IC50: read-out: IC50 of EPSC suppression, autaptic hippocampal neurons, mean (95% CI)

CB1 receptors (Rattus norvegicus, UniProt P20272), sequence (P20272 whole entry): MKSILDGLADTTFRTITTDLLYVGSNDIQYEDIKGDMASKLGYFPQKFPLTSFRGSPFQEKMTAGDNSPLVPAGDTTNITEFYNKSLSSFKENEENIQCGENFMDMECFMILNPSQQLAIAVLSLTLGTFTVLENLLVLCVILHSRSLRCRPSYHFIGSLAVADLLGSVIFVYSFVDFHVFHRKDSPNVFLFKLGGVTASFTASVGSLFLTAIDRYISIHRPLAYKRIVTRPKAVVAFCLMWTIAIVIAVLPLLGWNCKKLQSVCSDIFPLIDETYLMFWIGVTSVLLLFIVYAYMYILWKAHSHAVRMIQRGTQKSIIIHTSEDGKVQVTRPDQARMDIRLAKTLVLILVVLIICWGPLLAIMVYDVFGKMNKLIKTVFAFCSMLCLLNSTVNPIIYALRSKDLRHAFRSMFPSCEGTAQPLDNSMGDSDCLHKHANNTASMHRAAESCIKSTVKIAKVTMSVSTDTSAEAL
T1 sequence (P47746 whole entry): as the sequence (P20272 whole entry) above, with E95D counted along it

SMILES | plateau / maximal internalization in time course [1] | maximal internalization (Emax) [1] | EC50 [1] [µM] | maximal decrease of EPSC magnitude [2] [%] | maximal suppression of EPSC, % of baseline [3] | IC50 [3] [µM]
CCCCCCCC(C)(C)c1ccc([C@H]2CCC[C@@H](O)C2)c(O)c1 [cis-CP47,497-C8] | 48.4 ± 2.4 % of basal surface levels | 53.8 ± 2.4 % of basal surface levels | 0.0019 |  |  | 
CCCCCn1cc(C(=O)c2cccc3ccccc23)c2ccccc21 [JWH018] | 50.7 ± 2.6 % of basal surface levels | 45.2 ± 2.0 % of basal surface levels | 0.0101 | 48.0 |  | 
CCCCCCCC(C)(C)c1ccc([C@@H]2CCC[C@@H](O)C2)c(O)c1 [trans-CP47,497-C8] | 47.7 ± 3.1 % of basal surface levels | 54.9 ± 3.7 % of basal surface levels | 0.0027 |  |  | 
CCCCCCCC(C)(C)c1ccc([C@H]2CCC[C@@H](O)C2)c(O)c1 [CP47,497-C8] | 51.4 ± 2.2 % of basal surface levels | 52.7 ± 4.3 % of basal surface levels | 0.0044 |  | 51.6 ± 8.0 % of baseline and 51.6 % of baseline | 0.0154
CCCCn1cc(C(=O)c2cccc3ccccc23)c2ccccc21 [JWH073] | 57.5 ± 3.1 % of basal surface levels | 61.2 ± 2.5 % of basal surface levels | 0.0456 |  | 31.5 ± 4.0 % of baseline | 0.0494
